{"source": "patent US11845807B2", "about": "“Method and carrier complexes for delivering molecules to cells” (priority 2003, dated 2023)", "key": {"[1]": {"test_system": "Caco-2 cells", "assay": "Confocal laser scanning microscopy of fluorescent peptide uptake, Caco-2 cells", "type": "cell-based", "details": "0.1 μM, 15 min at 37° C.", "method": "(§1) Confocal Laser Scanning Microscopy. The uptake of aromatic-cationic peptides into cells was confirmed by confocal laser scanning microscopy (CLSM) using two fluorescent peptides, [Dmt^1,dnsDap^4]DALDA (Dmt-D-Arg-Phe-dnsDap-NH2, where dnsDap is β-dansyl-1-α-β-diamino-propionic acid) and [Dmt^1.atnDap^4]DALDA (Dmt-D-Arg-Phe-atnDap-NH2, where atn is β-anthraniloyl-L-α-β-diaminopropionic acid). Caco-2 cells or SH-SYSY cells were grown as described above and were plated on (35-mm) glass bottom dishes (MatTek, Ashland, Mass.) for 2 days. The medium was then removed, and cells were incubated with 1 ml of HBSS containing 0.1 μM of the fluorescent peptide at either 4° C. or 37° C. for 15 min. Cells were then washed three times with ice-cold HESS and covered with 200 μl of PBS, and microscopy was performed within 10 min at room temperature using a confocal laser scanning microscope with a C-Apochromat 63×/1.2 W torr objective (Nikon, Tokyo, Japan). Excitation/emission wavelengths were set at 340/520 nm for [Dmt^1,dnsDap^4]DALDA and 320/420 nm for [Dmt^1,atnDap^4]-DALDA, respectively. For optical sectioning in z-direction, 5 to 10 frames with […] were made."}, "[2]": {"test_system": "Huh7 cells", "assay": "Cell viability by trypan blue uptake", "type": "cell-based", "details": "50 μl of 1 mM conjugate in 1 ml medium, 24 hours at 37° C.", "method": "Trypan blue is only taken by cells with increased membrane permeability. Huh7 cells (1×10^6) were washed three times in DMEM, and 1 ml of fresh medium, or media containing 50 μl of 1 mM [Dmt^1]DALDA-SMCC conjugate, [D-Arg-Dmt-Lys-Phe-NH2]-SMCC conjugate, or [Phe^1]DALDA-SMCC conjugate, and incubated at 37° C. for 24 hours at 5% CO2. Cells were then washed three times with DMEM, and 1 ml of 0.4% trypan blue was added to the cells for 2 minutes. Excessive dye was removed by washing cells in cell medium and the cells were examined by light microscopy."}, "[3]": {"test_system": "Caco-2 cells", "details": "Terada et al. 1999; confirmed in this study (FIG. 2B); cited from earlier work"}, "[4]": {"test_system": "Caco-2 cells", "assay": "Assay for peptide uptake in Caco-2 cells", "type": "cell-based", "description": "Assay for Peptide Uptake."}, "[5]": {"assay": "Peptide translocation across Caco-2 monolayers (Transwell, apical-to-basolateral)", "type": "in vitro ADME", "details": "Caco-2; apical-to-basolateral; read-out: apparent permeability coefficient", "method": "(§2) Assay for Peptide Translocation across Caco-2 Monolayers. Monolayers of Caco-2 cells were prepared as described previously (Irie et al., J. Pharmacol. Exp. Ther. 2001, 298: 711-717), Caco-2 cells (2×10^5) were seeded on microporous membrane filters (24 mm, […]) inside Transwell cell culture chambers (Corning Glassworks, Corning, N.Y.). Each Transwell chamber was filled with 1.5 ml of medium in the apical compartment and 2.5 ml in the basolateral compartment. The cell monolayers were given fresh medium every 1 to 2 days and were used on day 28 for transport experiments.\n(§3) The apparent permeability coefficient was calculated according to the following equation: Papp=X/(t·A·Co), where X/t is the rate of uptake in the receiver compartment, A is the diffusion area (4.72 cm^2), and Co is the initial concentration in the donor compartment."}, "[6]": {"test_system": "Caco-2 monolayer", "assay": "Peptide translocation across Caco-2 monolayers (Transwell, apical-to-basolateral)", "type": "in vitro ADME", "details": "60 min", "method": "as §2, §3"}, "[7]": {"test_system": "Caco-2 cells", "assay": "Assay for peptide efflux from Caco-2 cells", "type": "cell-based", "method": "Assay for Peptide Efflux from CaCo-2 Cells. […] Cells were then washed four times with 1 ml of ice-cold incubation solution to terminate uptake and then incubated with 0.5 ml of MEM for 1 h at either 37 or 4° C. to measure the efflux of peptide from cells to the incubation medium. The amount of radioactivity was determined in cell lysates and in the incubation medium."}, "[8]": {"test_system": "SH-SY5Y cells", "assay": "Confocal laser scanning microscopy of fluorescent peptide uptake, SH-SY5Y cells", "type": "cell-based", "details": "0.1 μM, 30 min at 4° C.", "method": "as §1, with “The medium was then removed, and cells were incubated with 1 ml of HBSS containing 0.1 μM of the fluorescent peptide at either 4° C. or 37° C. for 15 min.” left out"}, "[9]": {"test_system": "Caco-2 cells", "assay": "Uptake of peptide-β-Gal conjugates into cells (β-gal staining)", "type": "cell-based", "details": "1 h at 37° C.", "description": "Conjugation of protein to [Dmt1]DALDA. was cross-linked to β-galactosidase (recombinant E. coli, Sigma-Aldrich) using a cross-linker SMCC (succinimidyl 4-(N-maleimidomethyl)yclohexane-1-carboxylate)(Pierce). […] Its maleimide end can then be conjugated to a sulfhydryl-containing compound to create a thioether linkage (Bioconjugate Techniques by Greg T. Hermanson, Academic Press, page 234-237). β-Gal contains abundant free sulfhydryl groups in its native state. The uptake of β-Gal provides a convenient read-out with the use of X-gal. […] This should result in “activated peptide.” The “activated peptide” was diluted 1:10 with phosphate buffer. 1 mg of β-Gal was added to 1 ml of the 1:10 “activated peptide” and mixed at 4° C. for either 2 h or overnight.\nAssay for [Dmt1]DALDA-protein conjugate uptake into cells. […] Cells were then washed 4 times with PBS. The cells were then stained with β-gal staining set (Roche) for at least 2 h at 37° C. and examined under the microscope.\nThis should result in “activated peptide.” The “activated peptide” was diluted 1:10 with phosphate buffer. 1 mg of β-Gal was added to 1 ml of the 1:10 “activated peptide” and mixed at 4° C. for either 2 h or overnight.\nCells were then washed 4 times with phosphate buffer. The cells were then stained with β-gal staining set (Roche) for at least 2 h at 37° C. and examined under the microscope."}}, "note": "Square brackets hold non-standard residues; d marks the D form. Peptide text beside a SMILES is read from it. * marks the point of attachment. Dansyl = CN(C)c1cccc2c(S(=O)(=O)*)cccc12; Dmt = Cc1cc(O)cc(C)c1C[C@H](N)C(=O)O; 2Abz = Nc1ccccc1C(=O)O; Dap = NC[C@H](N)C(=O)O; Sar = CNCC(=O)O"}
{"compound": "Cc1cc(O)cc(C)c1C[C@H](N)C(=O)N[C@H](CCCNC(=N)N)C(=O)N[C@@H](Cc1ccccc1)C(=O)N[C@@H](CNS(=O)(=O)c1cccc2c(N(C)C)cccc12)C(N)=O", "note": "[[Dmt^1,dnsDap^4]DALDA, Dmt-D-Arg-Phe-dnsDap-NH2] (H-[Dmt][dR]F[Dap](Dansyl)-NH2; N-terminus assumed)", "values": [{"measurement": "intracellular distribution of fluorescence", "setting": "[1]", "value": "diffuse throughout the cytoplasm with no apparent vesicular distribution"}, {"measurement": "nuclear localisation of fluorescence", "setting": "[1]", "value": "completely excluded from the nucleus"}, {"measurement": "intracellular distribution of fluorescence", "setting": "[1]; dnsDap^4]DALDA", "value": "diffuse throughout the cytoplasm"}]}
{"compound": "CCOC(=O)OC(=O)OCC", "note": "[DEPC, diethylpyrocarbonate, reference compound]", "values": [{"measurement": "trypan blue uptake (cell viability)", "setting": "[2]", "value": "significant uptake of trypan blue"}]}
{"compound": "CN(CC(=O)O)C(=O)CN", "note": "[Gly-Sar, reference compound] (H-Gly-[Sar]-OH)", "values": [{"measurement": "pH of optimal uptake (by PEPT1)", "setting": "[3]", "value": 6.0}, {"measurement": "effect of DEPC on uptake", "setting": "[4]; 0.2 mM DEPC", "value": "significantly inhibited"}, {"measurement": "effect of 4° C. on uptake", "setting": "[4]; 4° C. versus 37° C.", "value": "completely abolished"}, {"measurement": "time course of uptake", "setting": "[4]; 37° C., 50 μM", "value": "continued to increase from 5 to 45 min"}, {"measurement": "Papp A→B", "setting": "[5]", "value": 12.6, "unit": "×10⁻⁶ cm/s"}, {"measurement": "percentage translocated from the apical to the basolateral side", "setting": "[6]", "value": 11.9, "unit": "%"}, {"measurement": "effect of temperature (4° C.) on efflux", "setting": "[7]; 4° C. versus 37° C.", "value": "significantly reduced"}, {"measurement": "peptide effluxed into medium", "setting": "[7]; preloaded 1 h, 1 h efflux at 37° C.", "value": 39, "unit": "%"}]}
{"compound": "Cc1cc(O)cc(C)c1C[C@H](N)C(=O)N[C@H](CCCNC(=N)N)C(=O)N[C@@H](Cc1ccccc1)C(=O)N[C@@H](CNC(=O)c1ccccc1N)C(N)=O", "note": "[[Dmt^1,atnDap^4]DALDA, Dmt-D-Arg-Phe-atnDap-NH2] (H-[Dmt][dR]F[Dap](2Abz)-NH2; N-terminus assumed)", "values": [{"measurement": "internalization at 4° C.", "setting": "[8]", "value": "energy-independent non-endocytotic uptake mechanism"}]}
{"compound": "β-Gal: β-galactosidase (recombinant E. coli, Sigma-Aldrich), protein cargo", "values": [{"measurement": "uptake of β-Gal into cells (blue cells)", "setting": "[9]", "value": "no uptake"}]}
{"compound": "N=C(N)NCCC[C@@H](NC(=O)[C@@H](N)Cc1ccccc1)C(=O)N[C@@H](Cc1ccccc1)C(=O)N[C@@H](CCCCN)C(N)=O", "note": "[[Phe^1]DALDA, Phe-D-Arg-Phe-Lys-NH2] (H-F[dR]FK-NH2; N-terminus assumed)", "values": [{"measurement": "trypan blue uptake (cell viability)", "setting": "[2]", "value": "No increase in trypan blue uptake"}]}
{"compound": "β-Gal with SMCC: β-Gal conjugated with SMCC alone, without peptide (control) [reference compound]", "values": [{"measurement": "uptake of β-Gal into cells (blue cells)", "setting": "[9]", "value": "did not enhance uptake"}]}
